According to PubChem BioAssay AID1963844 (Molecular Pharmacology Branch, DTP, NCI, 2024):

Tested on: 422866-222-R5-J1-PDC complex spheroid viability
Assay: Anticancer human tumor 422866-222-R5-J1-PDC patient-derived pancreatic adenocarcinoma cell line growth inhibition [POLQ]
Conditions: for IC50: curve of first compound; for viability, T/C: stronger effect = lower value
Procedure: Multicellular complex tumor spheroid response to Polymerase (POL) inhibitors (novobiocin, ART-558, RP6685) in combination with a variety of drugs and investigational agents in selected tumor cell lines
The POL inhibitors (novobiocin, ART-558, and RP6685) were evaluated both individually and in combination with standard of care and investigational anticancer small molecules within a complex spheroid model of solid tumors. . Complex spheroids include a stromal component modeled by human endothelial cells (HUVEC) and fibroblasts modeled by human mesenchymal stem cells (MSCs). The concentration ranges selected for each drug and investigational agent were based upon clinically achievable concentrations if the clinical Cmax of the agent was known.
Compounds. The drugs and investigational agents: novobiocin (NSC847541), ART-558 (NSC835418), RP-6685 (NSC848927), peposertib (NSC802822), ceralasertib (NSC780249), elimusertib (NSC800525), camonsertib (NSC841442), AZD-1390 (NSC803789), olaparib (NSC753686), talazoparib (NSC767125), rucaparib (NSC756644), sotorasib (NSC818433), MRTX-1133 (NSC836407), SN-38 (NSC673596), topotecan (NSC609699), epotoside (NSC141540), doxorubicin (NSC123127), gemcitabine (NSC613327), 5-fluorouracil (NSC19893), paclitaxel (NSC125973), vemurafenib (NSC761431), MSA-2 (NSC828583), SN-011 (NSC837082), adavosertib (NSC754352), prexasertib (NSC758257), carboplatin (NSC241240) and oxaliplatin (NSC266046), were obtained from the National Cancer Institute (NCI) Developmental Therapeutics Program Chemical Repository (21). The FDA-approved anticancer drug set is available from the Developmental Therapeutics Program at https://dtp.cancer.gov/organization/dscb/obtaining/. […] The stock solutions were prepared in dimethyl sulfoxide (DMSO, Sigma-Aldrich, St. Louis, MO, cat. D2650), except for the platinum compounds which were prepared in saline (Quality Biological, Gaithersburg, MD, cat. 114-055-101), at 800-fold the tested concentration and stored at -70 degrees C prior to their use. All drugs and investigational agents were tested over a range starting from a high concentration at or near the clinical Cmax and decreasing in half-log increments. If the clinical Cmax for an agent had not been determined, the highest concentration tested was 10 microM, except for SN-38, which was tested at a high concentration of 1 microM.
Cell Culture. All cells were maintained in an incubator at 37 degrees C and 5% CO2 with 95% humidity. The PDC lines were cultured according to standard operating procedures established by the NCI PDMR (https://pdmr.cancer.gov). Table 3 of the manuscript, lists the cell lines along with the number of the three cell types plated to form the mct-spheroids and media for tumor cell growth. After thawing, all PDC lines, except 997537-175-T-J1-PDC and 415267-285-R-J2-PDC, were cultured in Matrigel-coated flasks prepared with a working solution of 1X Ham's F-12 nutrient mix, without supplementation (Thermo Fisher Scientific, cat. 11765054), 100 U/mL penicillin-streptomycin (Thermo Fisher Scientific, cat. 15140122), and 2.5% Matrigel (Corning Inc., Corning, NY, cat. 354248) for the first three passages. The two PDC lines 997537-175-T-J1-PDC and 415267-285-R-J2-PDC were cultured on uncoated flasks. The 857933-349-R-J2-PDC line was cultured in 6C/Colon 1B media containing advanced DMEM/F-12 (Thermo Fisher Scientific, cat. 12634028), 10 mM HEPES (Thermo Fisher Scientific, cat. 15630080), 1X GlutaMAX supplement (Thermo Fisher Scientific, cat. 35050061), 0.1 mg/mL primocin (InvivoGen, San Diego, CA, cat. ant-pm-2), 10% defined fetal bovine serum, heat inactivated (HyClone Laboratories Inc., Logan, UT, cat. SH30070.03HI), 50% L-WRN conditioned media (ATCC, cat. CRL-3276), 1.25 mM N-Acetyl-L-cysteine (Sigma-Aldrich, cat. A9165), 10 mM nicotinamide (Sigma-Aldrich, cat. N0636), 1X B-27 supplement (Thermo Fisher Scientific, cat. 17504044), 1X N-2 supplement (Thermo Fisher Scientific, cat. […]

[1] = second compound 0.0316 µM, first compound 0.0316 µM
[2] = second compound 0.0316 µM, first compound 0.1 µM
[3] = second compound 0.0316 µM, first compound 0.316 µM
[4] = second compound 0.0316 µM, first compound 1 µM
[5] = second compound 0.0316 µM, first compound 3.16 µM
[6] = second compound 0.0316 µM, first compound 10 µM
[7] = second compound 0.1 µM, first compound 0.0316 µM
[8] = second compound 0.1 µM, first compound 0.1 µM
[9] = second compound 0.1 µM, first compound 0.316 µM
[10] = second compound 0.1 µM, first compound 1 µM
[11] = second compound 0.1 µM, first compound 3.16 µM
[12] = second compound 0.1 µM, first compound 10 µM
[13] = second compound 0.316 µM, first compound 0.0316 µM
[14] = second compound 0.316 µM, first compound 0.1 µM
[15] = second compound 0.316 µM, first compound 0.316 µM
[16] = second compound 0.316 µM, first compound 1 µM
[17] = second compound 0.316 µM, first compound 3.16 µM
[18] = second compound 0.316 µM, first compound 10 µM
[19] = second compound 1 µM, first compound 0.0316 µM
[20] = second compound 1 µM, first compound 0.1 µM
[21] = second compound 1 µM, first compound 0.316 µM
[22] = second compound 1 µM, first compound 1 µM
[23] = second compound 1 µM, first compound 3.16 µM
[24] = second compound 1 µM, first compound 10 µM
[25] = second compound 3.16 µM, first compound 0.0316 µM
[26] = second compound 3.16 µM, first compound 0.1 µM
[27] = second compound 3.16 µM, first compound 0.316 µM
[28] = second compound 3.16 µM, first compound 1 µM
[29] = second compound 3.16 µM, first compound 3.16 µM
[30] = second compound 3.16 µM, first compound 10 µM
[31] = second compound 10 µM, first compound 0.0316 µM
[32] = second compound 10 µM, first compound 0.1 µM
[33] = second compound 10 µM, first compound 0.316 µM
[34] = second compound 10 µM, first compound 1 µM
[35] = second compound 10 µM, first compound 3.16 µM
[36] = second compound 10 µM, first compound 10 µM
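Note: spheroids exposed to compounds for one week before readout.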
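Throughout, for viability, T/C: percent of DMSO vehicle wells luminescence so 100% = untreated viability.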

## COc1cccc2c1C(=O)c1c(O)c3c(c(O)c1C2=O)CC(O)(C(=O)CO)CC3OC1CC(N)C(O)C(C)O1 (centres undefined) + Nc1ccc(C#CCN(C(=O)Cc2ncc(C(F)(F)F)cc2C(F)(F)F)c2ccc(F)cc2)nn1
Second compound 0.0316 µM
  IC50: 65.9 nM
Second compound 0.1 µM
  IC50: 118 nM
Second compound 0.316 µM
  IC50: 67.7 nM
Second compound 1 µM
  IC50: 81 nM
Second compound 3.16 µM
  IC50: 92.3 nM
Second compound 10 µM
  IC50: 142 nM
[1]
  viability, T/C: 60%
[2]
  viability, T/C: 44.3%
[3]
  viability, T/C: 32.5%
[4]
  viability, T/C: 30.2%
[5]
  viability, T/C: 34.6%
[6]
  viability, T/C: 28.3%
[7]
  viability, T/C: 52.7%
[8]
  viability, T/C: 54.3%
[9]
  viability, T/C: 28.9%
[10]
  viability, T/C: 33.3%
[11]
  viability, T/C: 29.6%
[12]
  viability, T/C: 27.2%
[13]
  viability, T/C: 58.4%
[14]
  viability, T/C: 45.2%
[15]
  viability, T/C: 35.1%
[16]
  viability, T/C: 24.8%
[17]
  viability, T/C: 28.6%
[18]
  viability, T/C: 26.6%
[19]
  viability, T/C: 59.2%
[20]
  viability, T/C: 47.7%
[21]
  viability, T/C: 34.4%
[22]
  viability, T/C: 26.4%
[23]
  viability, T/C: 28.6%
[24]
  viability, T/C: 30.8%
[25]
  viability, T/C: 57.7%
[26]
  viability, T/C: 49.3%
[27]
  viability, T/C: 31.5%
[28]
  viability, T/C: 23%
[29]
  viability, T/C: 36%
[30]
  viability, T/C: 24.5%
[31]
  viability, T/C: 54.4%
[32]
  viability, T/C: 55.5%
[33]
  viability, T/C: 38.7%
[34]
  viability, T/C: 22.6%
[35]
  viability, T/C: 32.8%
[36]
  viability, T/C: 30.5%

## Nc1ccn(C2OC(CO)C(O)C2(F)F)c(=O)n1 (centres undefined) + Nc1ccc(C#CCN(C(=O)Cc2ncc(C(F)(F)F)cc2C(F)(F)F)c2ccc(F)cc2)nn1
Second compound 0.0316 µM
  IC50: < 31.6 nM
Second compound 0.1 µM
  IC50: 55.2 nM
Second compound 0.316 µM
  IC50: 72.6 nM
Second compound 1 µM
  IC50: 71.5 nM
Second compound 3.16 µM
  IC50: 118 nM
Second compound 10 µM
  IC50: 539 nM
[1]
  viability, T/C: 57.9%
[2]
  viability, T/C: 42.5%
[3]
  viability, T/C: 28.7%
[4]
  viability, T/C: 38.4%
[5]
  viability, T/C: 36.9%
[6]
  viability, T/C: 39.2%
[7]
  viability, T/C: 62.2%
[8]
  viability, T/C: 37.7%
[9]
  viability, T/C: 30.6%
[10]
  viability, T/C: 32.4%
[11]
  viability, T/C: 38.1%
[12]
  viability, T/C: 36.4%
[13]
  viability, T/C: 66.8%
[14]
  viability, T/C: 43.5%
[15]
  viability, T/C: 30.4%
[16]
  viability, T/C: 40.1%
[17]
  viability, T/C: 33.2%
[18]
  viability, T/C: 34.4%
[19]
  viability, T/C: 75%
[20]
  viability, T/C: 39.8%
[21]
  viability, T/C: 36.8%
[22]
  viability, T/C: 34.3%
[23]
  viability, T/C: 36.1%
[24]
  viability, T/C: 49%
[25]
  viability, T/C: 72.8%
[26]
  viability, T/C: 52.5%
[27]
  viability, T/C: 35.3%
[28]
  viability, T/C: 31.8%
[29]
  viability, T/C: 34.1%
[30]
  viability, T/C: 41%
[31]
  viability, T/C: 98.8%
[32]
  viability, T/C: 67.9%
[33]
  viability, T/C: 68.8%
[34]
  viability, T/C: 34.8%
[35]
  viability, T/C: 31.7%
[36]
  viability, T/C: 30.6%
